Reference: PMC10076467 (EJNMMI Research, 2023)
Where two headings read alike, the source gives them in different places.

How the values were obtained:
GluN2B receptors = target: T1, GluN2B receptors (Rattus norvegicus, UniProt P35439+Q00960); assay: ED50 for pre-blocking of GluN2B radioligand uptake in rat whole brain (PET); type: in vivo; details: for ED50 in rat whole brain in vivo ^11C-(−)-NR2B-Me: radioligand ^11C-(−)-NR2B-Me
T1 construct: from tissue; host or cells: brain of living male rats (PET imaging)
T1 sequence (Q00960 27-1482, other chains not shown): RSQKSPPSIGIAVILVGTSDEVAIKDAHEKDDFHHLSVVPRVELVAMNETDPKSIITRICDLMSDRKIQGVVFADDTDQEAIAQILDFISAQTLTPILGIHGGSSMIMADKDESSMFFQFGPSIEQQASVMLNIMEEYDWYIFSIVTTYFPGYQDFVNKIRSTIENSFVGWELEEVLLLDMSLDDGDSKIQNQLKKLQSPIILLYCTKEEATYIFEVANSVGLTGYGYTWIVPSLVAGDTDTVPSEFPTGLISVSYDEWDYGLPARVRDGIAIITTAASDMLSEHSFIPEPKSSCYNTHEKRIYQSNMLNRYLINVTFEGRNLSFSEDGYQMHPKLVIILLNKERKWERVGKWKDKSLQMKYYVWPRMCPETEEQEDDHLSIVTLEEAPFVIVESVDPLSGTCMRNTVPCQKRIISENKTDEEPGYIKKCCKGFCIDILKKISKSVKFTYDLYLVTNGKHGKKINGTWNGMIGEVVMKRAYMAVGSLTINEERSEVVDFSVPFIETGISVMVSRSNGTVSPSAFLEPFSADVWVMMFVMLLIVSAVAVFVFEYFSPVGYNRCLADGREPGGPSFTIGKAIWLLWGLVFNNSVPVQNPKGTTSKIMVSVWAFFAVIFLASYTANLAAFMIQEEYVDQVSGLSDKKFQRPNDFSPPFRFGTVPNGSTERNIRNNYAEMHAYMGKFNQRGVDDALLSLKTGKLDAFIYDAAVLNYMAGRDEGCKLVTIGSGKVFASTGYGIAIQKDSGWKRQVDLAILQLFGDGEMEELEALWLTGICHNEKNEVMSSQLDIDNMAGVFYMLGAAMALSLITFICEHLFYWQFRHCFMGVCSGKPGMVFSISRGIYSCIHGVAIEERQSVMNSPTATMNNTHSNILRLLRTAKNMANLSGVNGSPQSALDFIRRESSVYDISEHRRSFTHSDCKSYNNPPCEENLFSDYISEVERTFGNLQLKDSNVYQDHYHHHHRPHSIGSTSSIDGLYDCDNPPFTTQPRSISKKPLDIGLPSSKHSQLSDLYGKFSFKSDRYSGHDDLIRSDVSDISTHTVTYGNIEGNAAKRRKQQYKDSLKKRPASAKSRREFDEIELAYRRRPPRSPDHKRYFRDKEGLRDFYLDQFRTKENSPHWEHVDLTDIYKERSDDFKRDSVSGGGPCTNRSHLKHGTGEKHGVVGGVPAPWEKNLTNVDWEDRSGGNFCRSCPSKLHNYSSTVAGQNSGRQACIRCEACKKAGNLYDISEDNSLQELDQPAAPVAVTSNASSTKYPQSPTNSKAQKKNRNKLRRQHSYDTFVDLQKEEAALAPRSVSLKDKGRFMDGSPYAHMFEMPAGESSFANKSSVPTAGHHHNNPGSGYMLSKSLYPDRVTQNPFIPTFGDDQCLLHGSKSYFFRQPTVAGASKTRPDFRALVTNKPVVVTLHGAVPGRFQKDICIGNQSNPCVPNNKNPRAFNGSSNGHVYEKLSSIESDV
Experimental: For radioligand injection, a polyethylene catheter (PE 10) was inserted into the penile vein of a male rat and then secured with tissue adhesive and tape. […] Body temperature was monitored with a rectal probe. All PET scans were performed on a microPET Focus 220 scanner (Siemens Medical Solutions) (7,8). Data were acquired in listmode and reconstructed with Fourier rebinning + 2D filtered backprojection. A transmission scan was acquired before radioligand injection for attenuation correction. Dynamic scanning began at the time of a one-minute intravenous bolus injection of the radioligand under study (55 ± 19 MBq; volume 0.2 to 1.0 mL). The injected mass dose was 3 ± 1 nmol/kg. Challenge agents were administered intravenously 10 minutes before the radioligand for pre-blocking studies or 10 minutes after the radioligand for displacement studies. Tomographic images were analyzed with pixel-wise modeling computer software (PMOD 2.6; PMOD Group). Regions-of-interest in the brain were delineated, and time-activity curves calculated as SUV versus time.
Pre-blocking and displacement experiments were performed to assess radioligand target engagement and radioligand selectivity in vivo. […] Areas-under the curve (AUCs) from time-activity curves between 20 and 90 minutes were calculated for each radioligand. AUCs obtained from the same production of radioligand were scaled to the value (or mean value) for the baseline experiment to give relative values (relative AUC20–90 min). […] Where data permitted, the dose-response curves were fitted with GraphPad Prism software (version 8.1.1; GraphPad) to estimate the ED50 values. A dummy value of 100 pmol per kg body weight was used for zero concentration of the challenge agent in the construction of these dose-response curves. Numerical data are expressed as mean ± S.D. for n>2, or as mean and range for n = 2.

σ1 receptor = details: cited from earlier work
σ2 receptor = details: cited from earlier work
guinea pig σ1 receptor = guinea pig σ1 receptor (Cavia porcellus, UniProt Q60492); assay: PDSP σ1 receptor binding
Sequence of guinea pig σ1 receptor (Q60492 whole entry): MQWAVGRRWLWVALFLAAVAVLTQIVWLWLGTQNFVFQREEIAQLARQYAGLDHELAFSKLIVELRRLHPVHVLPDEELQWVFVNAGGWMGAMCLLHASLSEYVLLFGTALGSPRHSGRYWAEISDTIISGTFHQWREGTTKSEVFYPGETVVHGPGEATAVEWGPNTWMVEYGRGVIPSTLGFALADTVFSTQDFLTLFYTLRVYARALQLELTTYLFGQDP
Excerpt: (§1) NR2B-Me was submitted to the PDSP for assessment of binding affinity against a wide range of other receptors and binding sites. A full listing of these receptors and binding sites is given in the Supplemental Results. Detailed assay protocols are available at the PDSP website (http://pdsp.cwru.edu).
(§2) Assessment of Binding Affinity against a Wide Range of Other Receptors and Binding Sites. NR2B-Me was submitted to the National Institute of Mental Health Psychoactive Drug Screening program (NIMH-PDSP) to assess binding affinity against a wide range of other receptors and binding sites (5-HT1A, 1B, 1D, 1E, 2A, 2A agonist, 2A antagonist, 2B, 2B agonist, 2B antagonist, 2C, 2C agonist, 2C antagonist, 3, 5A, 6, 7; α2; α2β2, α2β2, α3β2, α3β4, α4β2, α4β4, α7; α1A, 1A agonist, 1B, 1B agonist, 1B antagonist, 2A-2C; AMPA*; β1-3; BZPa1-3, a5, a6, rat brain site; Ca^2+-Channel; CB1-2, D1, 2, 2 agonist, 2 antagonist, 3-5; DAT; DOR; EP1-4; GABAA,B; GPR40,41,43; H1-4; HERG; IMIDAZOLINE 1; KA-R*; KOR, KORagonist, antagonist; M1, 1 agonist, 1 antagonist, 2, 3, 3 agonist, 3 antagonist, 4, 5, 5 agonist, 5 antagonist; MDR 1; mGluR1A,2,4,5,5-cloned,5-rat brain,6,8; MOR; Na^+-Channel; NET; NK1, 1 antagonist, 2, 2 antagonist, 3, 3 antagonist; NMDA; NMDA/MK801; NT-1; OXYTOCINagonist, antagonist; PAR1agonist, antagonist; PCP; PKCA, B, D, E, G; PTHR2, Purinergicagonist, antagonist; SET; σ1,2; V1, 1 agonist, 1 antagonist, 2, 2 agonist, 2 antagonist, 3, 3 agonist, 3 antagonist, VMAT1, 2).

PC12 cell σ2 receptors = target: T2, PC12 cell σ2 receptors (Rattus norvegicus, UniProt Q5U3Y7); assay: PDSP σ2 receptor binding
T2 construct: endogenous in cells; host or cells: PC12 cells
T2 sequence (Q5U3Y7 1-176): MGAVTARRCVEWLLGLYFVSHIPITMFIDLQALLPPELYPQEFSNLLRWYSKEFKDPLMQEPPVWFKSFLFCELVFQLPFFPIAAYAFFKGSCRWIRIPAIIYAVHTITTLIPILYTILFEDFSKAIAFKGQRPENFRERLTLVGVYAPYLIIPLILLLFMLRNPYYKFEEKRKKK
Excerpt: as §1, §2

[1] = rat, cited from earlier work
σ1 receptors = target: T3, σ1 receptors (Rattus norvegicus, UniProt Q9R0C9); assay: ED50 for pre-blocking of ^18F-FTC146 uptake in rat whole brain (PET); type: in vivo
T3 construct: from tissue; host or cells: brain of living male rats (PET imaging)
T3 sequence (Q9R0C9 whole entry): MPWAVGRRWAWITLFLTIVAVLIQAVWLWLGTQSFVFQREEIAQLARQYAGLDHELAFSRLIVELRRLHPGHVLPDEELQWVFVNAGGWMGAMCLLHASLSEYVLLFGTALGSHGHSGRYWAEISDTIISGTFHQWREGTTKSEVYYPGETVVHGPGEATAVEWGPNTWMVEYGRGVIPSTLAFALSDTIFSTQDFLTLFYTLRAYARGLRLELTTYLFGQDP
Experimental: For radioligand injection, a polyethylene catheter (PE 10) was inserted into the penile vein of a male rat and then secured with tissue adhesive and tape. For dynamic scanning, the rats were secured with tape in the scanner and kept under 1.5% isoflurane anesthesia via a nose cone. Body temperature was monitored with a rectal probe. All PET scans were performed on a microPET Focus 220 scanner (Siemens Medical Solutions) (7,8). Data were acquired in listmode and reconstructed with Fourier rebinning + 2D filtered backprojection. A transmission scan was acquired before radioligand injection for attenuation correction. Dynamic scanning began at the time of a one-minute intravenous bolus injection of the radioligand under study (55 ± 19 MBq; volume 0.2 to 1.0 mL). The injected mass dose was 3 ± 1 nmol/kg. Challenge agents were administered intravenously 10 minutes before the radioligand for pre-blocking studies or 10 minutes after the radioligand for displacement studies. Tomographic images were analyzed with pixel-wise modeling computer software (PMOD 2.6; PMOD Group). Regions-of-interest in the brain were delineated, and time-activity curves calculated as SUV versus time.
Pre-blocking and displacement experiments were performed to assess radioligand target engagement and radioligand selectivity in vivo. Normally 4 doses of 0.01 mg/kg, 0.05 mg/kg, 0.25 mg/kg, and 1.25 mg/kg were used for preblocking experiments, and only 2 doses of 0.25 mg/kg and 1.25 mg/kg were used for displacement experiments. […] […] […] […] Where data permitted, the dose-response curves were fitted with GraphPad Prism software (version 8.1.1; GraphPad) to estimate the ED50 values. A dummy value of 100 pmol per kg body weight was used for zero concentration of the challenge agent in the construction of these dose-response curves. Numerical data are expressed as mean ± S.D. for n>2, or as mean and range for n = 2.

[2] = PET, sixty minutes after injection
[3] = 45 min after intravenous injection

COC(=O)C1(c2ccc(C)cc2)CC1CN1CCC(O)(c2ccccc2)CC1 (racemic) [( ±)-PPCC]
ED50 in rat whole brain in vivo ^11C-(−)-NR2B-Me (GluN2B receptors; pre-blocking, AUC 20-90 min): > 1000 nmol/kg
Ki (σ1 receptor; reference radioligand ^3H-pentazocine, ref 45, read-out: Ki for σ1): 1.5 nM
Ki (σ2 receptor; reference radioligand ^3H-DTG, ref 45, read-out: Ki for σ2): 50.8 nM

COc1ccc2c(c1)CCN(CCCCc1ccc(C)cc1)CC2O (single isomer, unassigned; (+)) [(+)-NR2B-Me]
Ki (guinea pig σ1 receptor): 91 nM
Ki (PC12 cell σ2 receptors): 100 nM

COc1ccc2c(c1)CCN(CCCCc1ccc(C)cc1)CC2O (single isomer, unassigned; (-)) [(−)-NR2B-Me]
Ki (guinea pig σ1 receptor): 42 nM
Ki (PC12 cell σ2 receptors): 110 nM

CC(C)=CCN1CC[C@]2(C)c3cc(O)ccc3C[C@H]1[C@H]2C [(+)-Pentazocine]
ED50 in rat whole brain in vivo ^11C-(−)-NR2B-Me (GluN2B receptors; pre-blocking, AUC 20-90 min): > 1000 nmol/kg

COc1ccc2c(c1)CCN(CCCCc1ccc(SC)cc1)C[C@@H]2O [(R)-NR2B-SMe]
Ki (σ1 receptor; read-out: σ1 Ki): 88 nM
Ki (σ2 receptor; read-out: σ2 Ki): 110 nM

[11CH3]Oc1ccc2c(c1)CCN(CCCCc1ccccc1)C[C@@H]2O [(R)-^11C-Me-NB1]
radioactivity concentration in cerebellum as % of that in cortex [1, 2]: 79%
radioactivity concentration in cerebellum as % of that in hippocampus [1, 2]: 74%
radioactivity concentration in cerebellum as % of that in striatum [1, 2]: 75%
radioactivity concentration in cerebellum as % of that in thalamus [1, 2]: 83%

Oc1ccc2c(c1)CCN(CCCCc1ccc([18F])cc1)C[C@@H]2O [(R)-^18F-PF-NB1]
radioactivity in cerebellum as % of that in cortex [1, 3]: 85%
radioactivity in cerebellum as % of that in hippocampus [1, 3]: 110%
radioactivity in cerebellum as % of that in striatum [1, 3]: 95%
radioactivity in cerebellum as % of that in thalamus [1, 3]: 92%

COc1ccc2c(c1)CCN(CCCCc1ccc(SC)cc1)C[C@H]2O [(S)-NR2B-SMe]
ED50 versus ^18F-FTC146 (σ1 receptors; rat whole brain): exceeded 1 µmol per kg body weight
Ki (σ1 receptor; read-out: σ1 Ki): 24 nM
Ki (σ2 receptor; read-out: σ2 Ki): 140 nM

CN(C)CCN(C)CCc1ccc(Cl)c(Cl)c1 [BD1047]
effect of pre-administration on whole rat brain radioactivity uptake of GluN2B radioligands (GluN2B receptors; ^11C-NR2B-Me enantiomers (also ^11C-(S)-NR2B-SMe)): minimal effects
ED50 in rat whole brain in vivo ^11C-(+)-NR2B-Me (GluN2B receptors; pre-blocking, radioligand ^11C-(+)-NR2B-Me, AUC 20-90 min): 555 nmol/kg
ED50 in rat whole brain in vivo ^11C-(−)-NR2B-Me (GluN2B receptors; pre-blocking, AUC 20-90 min): 900 nmol/kg
ED50 in rat whole brain in vivo ^11C-(−)-NR2B-SMe (GluN2B receptors; pre-blocking, radioligand as printed in Table 3 head): > 1000 nmol/kg
ED50 in rat whole brain in vivo ^18F-FTC146 (σ1 receptors; radioligand ^18F-FTC146, AUC 20-120 min): 169 nmol/kg
Ki (σ1 receptor; reference radioligand ^3H-pentazocine, ref 39, read-out: Ki for σ1): 0.9 nM
Ki (σ2 receptor; reference radioligand ^3H-DTG, ref 39, read-out: Ki for σ2): 47 nM
